What was measured:
[1] = molecular target: T1, OmpLA (Escherichia coli, UniProt P0A921); experiment: free fatty acid release by ANS displacement from BSA (fluorescence); type: biochemical; conditions: DMPG proteoliposomes, CaCl2 added to start, 30 °C
T1 construct: gene pldA; functional dimer, needs divalent cation

[2] = molecular target: T2, PagP (Escherichia coli, UniProt P37001); experiment: colorimetric release of 4-nitrophenol, A410; type: biochemical; conditions: DMPG proteoliposomes, pH 8.5, 2 M urea, room temperature; substrate delivered with methyl-beta-cyclodextrin
T2 sequence (P37001 26-186): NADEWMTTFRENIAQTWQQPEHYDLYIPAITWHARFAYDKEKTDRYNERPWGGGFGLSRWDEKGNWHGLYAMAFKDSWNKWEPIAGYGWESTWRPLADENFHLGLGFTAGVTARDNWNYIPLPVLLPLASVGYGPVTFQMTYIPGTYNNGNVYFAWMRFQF

T1 sequence (P0A921 21-289): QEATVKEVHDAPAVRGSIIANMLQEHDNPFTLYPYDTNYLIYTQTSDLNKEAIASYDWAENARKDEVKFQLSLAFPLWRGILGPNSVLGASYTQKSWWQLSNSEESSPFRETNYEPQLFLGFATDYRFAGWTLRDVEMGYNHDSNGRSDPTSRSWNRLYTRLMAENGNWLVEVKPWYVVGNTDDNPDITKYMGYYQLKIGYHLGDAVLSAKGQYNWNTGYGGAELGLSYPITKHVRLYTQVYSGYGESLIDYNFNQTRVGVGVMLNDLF

Row | Compound | free fatty acid release by ANS displacement from BSA (fluorescence) [1] | colorimetric release of 4-nitrophenol, A410 [2]
1 | CCCCCCCCCCCCCC(=O)OC[C@H](COP(=O)(O)OCC(O)CO)OC(=O)CCCCCCCCCCCCC (some centres unmarked) [DMPG] | the phospholipase activity of OmpLA was measured in DMPG proteoliposomes | –
2 | CCCCCCCCCCCCCCCC(=O)Oc1ccc([N+](=O)[O-])cc1 [palmitate-4-nitrophenol] | – | MβCD facilitates the rapid delivery of the pNP PagP substrate into liposome bilayers

Source: paper PMC7617971, “OmpA Specifically Modulates the Activity of Enzymes that Reside in the Crowded Bacterial Outer Membrane” (Journal of molecular biology, 2025)
